Assay results: patent US20200297760A1, “COMPOSITIONS AND METHODS FOR REDUCING IMMUNE RESPONSES AGAINST CHIMERIC ANTIGEN RECEPTORS” (Juno Therapeutics, Inc., priority 2015, published 2020)
No end group written: not given here.

Assays:
Test in all cases: REVEAL Epitope Discovery System in vitro MHC-peptide binding assay
HLA-A*02:01 = HLA-A*02:01 (Homo sapiens, UniProt P04439, D140Y/D185E/D98H/E176V/E277Q/G131W/G231S/I119V/I121R/I166T/I218V/L300P/L318F/N151K/N90K/P208A/P217A/Q86G/Q94H/R138H/R169H/T345S); conditions: binding normalized to positive control peptide set at 100%, greater than 50 considered good or high affinity binding
Procedure: (§1) Actual binding affinities for certain HLA class I alleles (A*02:01, A*03:01, A*11:01, and B*08:01) were assessed in vitro for exemplary overlapping 9 amino acid peptide sequences within a portion of the 26 amino acid junction region spanning the CD28 and 4-1BB junction. Specifically, assessment was of a series of overlapping 9-mer peptides derived from the sequence […] (set forth in SEQ ID NO: 7), which contains a portion of the CD28 transmembrane domain and 4-1BB costimulatory domain spanning the junction between the domains (bond joining the two amino acids noted in underline). In addition, a series of overlapping 9-mer peptides of each of a number of different variants of this portion also were assessed, each variant containing a mutation or mutations in this region as described in Example 2.
(§2) The various 9-mer overlapping peptides were synthesized and their purity tested by MALDI-TOF Mass Spectrometry. The synthetic peptides were then incubated with recombinant MHC molecules to assess binding properties using the REVEAL Epitope Discovery System, which is a high-throughput binding assay that measures the degree to which each peptide is able to stabilize a ternary MHC-peptide complex (Prolmmune, Oxford, United Kingdom). Each peptide was separately tested for this ability with respect to each of the HLA class I alleles, normalized to the degree observed for a positive control (known T cell epitope for the relevant allele). The results are reported as a score, in which the binding was normalized to the positive control peptide set at 100%. In this analysis, a score of greater than 50 generally was considered to represent good or high affinity binding.

HLA-A*11:01 = HLA-A*11:01 (Homo sapiens, UniProt P04439, A114D/D185E/E176A/F33Y/L180Q/S129P/T187R); conditions: binding normalized to positive control peptide set at 100%, >50 considered good or high affinity binding
Procedure: as §1, §2

HLA-B*08:01 = HLA-B*08:01 (Homo sapiens, UniProt P01889, A93T/A95T/D138N/E176V/E187T/K202T/Q94N/R180D/S35A/V36M/Y33D/Y91F); conditions: binding normalized to positive control peptide set at 100%, >50 considered good or high affinity binding
Procedure: as §1, §2

HLA-A*03:01 = HLA-A*03:01 (Homo sapiens, UniProt P04439); conditions: REVEAL score, binding normalized to positive control peptide set at 100%; greater than 50 considered good or high affinity binding
Procedure: as §1, §2

Compound | A*02:01 In Vitro Score (HLA-A*02:01) | A*11:01 In Vitro Score (HLA-A*11:01) | B*08:01 In Vitro Score (HLA-B*08:01) | A*03:01 In Vitro (HLA-A*03:01)
CC[C@H](C)[C@H](NC(=O)[C@H](Cc1ccccc1)NC(=O)[C@H](C)N)C(=O)N[C@H](C(=O)N[C@@H](Cc1ccccc1)C(=O)N[C@@H](Cc1c[nH]c2ccccc12)C(=O)N[C@H](C(=O)N[C@@H](CCCNC(=N)N)C(=O)N[C@@H](CCCNC(=N)N)C(=O)O)C(C)C)[C@@H](C)CC | 1.40 | 1.50 | 0.30 | –
CC(C)[C@H](NC(=O)[C@H](Cc1c[nH]c2ccccc12)NC(=O)[C@@H](N)Cc1ccccc1)C(=O)N[C@@H](C)C(=O)N[C@@H](CCCNC(=N)N)C(=O)NCC(=O)N[C@@H](CCCNC(=N)N)C(=O)N[C@@H](CCCCN)C(=O)N[C@@H](CCCCN)C(=O)O | 13.50 | 8.90 | 0.00 | 5.00
CC(C)C[C@H](NC(=O)CNC(=O)[C@H](CCCNC(=N)N)NC(=O)[C@H](CCCCN)NC(=O)[C@@H](NC(=O)[C@H](Cc1c[nH]c2ccccc12)NC(=O)[C@@H](N)Cc1ccccc1)C(C)C)C(=O)N[C@@H](CCCCN)C(=O)N[C@@H](CCCCN)C(=O)O | 9.40 | 25.30 | 6.30 | 2.70
CC(C)[C@H](NC(=O)[C@H](Cc1c[nH]c2ccccc12)NC(=O)[C@@H](N)Cc1ccccc1)C(=O)N[C@@H](CCCCN)C(=O)N[C@@H](CCCNC(=N)N)C(=O)NCC(=O)N[C@@H](CC(N)=O)C(=O)N[C@@H](CCCCN)C(=O)N[C@@H](CCCCN)C(=O)O | 8.70 | 7.30 | 0.10 | 3.60
CC[C@H](C)[C@H](N)C(=O)N[C@@H](Cc1ccccc1)C(=O)N[C@@H](Cc1c[nH]c2ccccc12)C(=O)N[C@H](C(=O)N[C@@H](CCCCN)C(=O)N[C@@H](CCCNC(=N)N)C(=O)NCC(=O)N[C@@H](Cc1c[nH]cn1)C(=O)N[C@@H](CCCCN)C(=O)O)C(C)C | 2.20 | 30.90 | 3.20 | 9.00
CC[C@H](C)[C@H](N)C(=O)N[C@@H](Cc1ccccc1)C(=O)N[C@@H](Cc1c[nH]c2ccccc12)C(=O)N[C@H](C(=O)N[C@@H](CCCCN)C(=O)N[C@@H](CCCNC(=N)N)C(=O)NCC(=O)N[C@@H](CC(N)=O)C(=O)N[C@@H](CCCCN)C(=O)O)C(C)C | 3.50 | 45.90 | 0.10 | 8.00
CC[C@H](C)[C@H](N)C(=O)N[C@H](C(=O)N[C@@H](Cc1ccccc1)C(=O)N[C@@H](Cc1c[nH]c2ccccc12)C(=O)N[C@H](C(=O)N[C@@H](C)C(=O)N[C@@H](CCCNC(=N)N)C(=O)NCC(=O)N[C@@H](CCCNC(=N)N)C(=O)O)C(C)C)[C@@H](C)CC | 9.60 | 70.60 | 0.30 | 18.60
CC[C@H](C)[C@H](N)C(=O)N[C@H](C(=O)N[C@@H](Cc1ccccc1)C(=O)N[C@@H](Cc1c[nH]c2ccccc12)C(=O)N[C@H](C(=O)N[C@@H](CCCCN)C(=O)N[C@@H](CCCNC(=N)N)C(=O)NCC(=O)N[C@@H](CC(N)=O)C(=O)O)C(C)C)[C@@H](C)CC | 9.30 | 42.10 | 0.90 | 4.30
CC[C@H](C)[C@H](N)C(=O)N[C@H](C(=O)N[C@@H](Cc1ccccc1)C(=O)N[C@@H](Cc1c[nH]c2ccccc12)C(=O)N[C@H](C(=O)N[C@@H](CCCCN)C(=O)N[C@@H](CCCNC(=N)N)C(=O)NCC(=O)N[C@@H](CO)C(=O)O)C(C)C)[C@@H](C)CC | 13.60 | 100.00 | 0.40 | 16.20
CC[C@H](C)[C@H](N)C(=O)N[C@H](C(=O)N[C@@H](Cc1ccccc1)C(=O)N[C@@H](Cc1c[nH]c2ccccc12)C(=O)N[C@H](C(=O)N[C@@H](CC(C)C)C(=O)N[C@@H](CCCNC(=N)N)C(=O)NCC(=O)N[C@@H](CCCNC(=N)N)C(=O)O)C(C)C)[C@@H](C)CC | 8.40 | 35.20 | 0.40 | 2.80
CC(C)C[C@H](NC(=O)[C@H](CCCCN)NC(=O)[C@H](CCCCN)NC(=O)[C@H](CCCNC(=N)N)NC(=O)CNC(=O)[C@H](CCCNC(=N)N)NC(=O)[C@H](C)NC(=O)[C@@H](NC(=O)[C@@H](N)Cc1c[nH]c2ccccc12)C(C)C)C(=O)O | 8.80 | 13.80 | 32.40 | 1.30
CC(C)[C@H](NC(=O)[C@@H](N)Cc1c[nH]c2ccccc12)C(=O)N[C@@H](CCC(N)=O)C(=O)N[C@@H](CCCNC(=N)N)C(=O)NCC(=O)N[C@@H](CC(N)=O)C(=O)N[C@@H](CCCCN)C(=O)N[C@@H](CCCCN)C(=O)N[C@@H](CO)C(=O)O | 1.20 | 5.00 | 0.00 | 0.70
CC(C)C[C@H](NC(=O)[C@H](CCCCN)NC(=O)[C@H](CCCCN)NC(=O)[C@H](CCCNC(=N)N)NC(=O)CNC(=O)[C@H](CCCNC(=N)N)NC(=O)[C@H](CCC(N)=O)NC(=O)[C@@H](NC(=O)[C@@H](N)Cc1c[nH]c2ccccc12)C(C)C)C(=O)O | 8.10 | 12.80 | 45.10 | 4.90
CC(C)C[C@H](NC(=O)[C@H](CCCCN)NC(=O)[C@H](CCCCN)NC(=O)[C@H](CO)NC(=O)CNC(=O)[C@H](CCCNC(=N)N)NC(=O)[C@H](CCC(N)=O)NC(=O)[C@@H](NC(=O)[C@@H](N)Cc1c[nH]c2ccccc12)C(C)C)C(=O)O | 4.40 | 5.90 | – | 1.20
AFIIFWVAR | 2.20 | 51.80 | 0.20 | 0.50
AFIIFWVHR | 0.30 | 34.90 | 0.30 | 0.30
AFIIFWVKR | 0.50 | 25.90 | 1.90 | 5.70
AFIIFWVLR | 5.70 | 17.20 | 0.20 | 0.30
AFIIFWVQR | 0.40 | 15.00 | 0.00 | 0.20
AFIIFWVSR | 4.50 | 54.00 | 0.30 | 0.30
FIIFWVHRG | 37.30 | 0.90 | 0.20 | 0.00
FIIFWVKRG | 10.10 | 0.40 | 0.10 | 1.40
FIIFWVLRG | 7.20 | 2.40 | 0.20 | 0.10
